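In this assay, cells in 96-well plates receive the compound at five concentrations for 48 hours. Endpoints are linearly interpolated between the surrounding concentrations. GI50: concentration for 50% inhibition of growth.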 Activity calls are given as the source filed them. Cut-off read from the data, not from the text of the source: active = GI50 up to about 1.1 µM and inactive = higher.
Experiments:
Assay in all cases: NCI-60 cell line screen, 48 h
A549 = system: A549
ACHN = system: ACHN
EKVX = system: EKVX
HCC 2998 = system: HCC 2998
HL-60 = system: HL-60
K562 = system: K562
M14 = system: M14
MCF7 = system: MCF7
MDA-MB-231 = system: MDA-MB-231
MDA-N = system: MDA-N
NCI-H460 = system: NCI-H460
NCI/ADR-RES = system: NCI/ADR-RES
OVCAR-5 = system: OVCAR-5
PC-3 = system: PC-3
RPMI-8226 = system: RPMI-8226
RXF 393 = system: RXF 393
SW-620 = system: SW-620
UACC-62 = system: UACC-62
UO-31 = system: UO-31

Measured: GI50

O=C1c2ccccc2C(=O)c2c(NC3CCCCC3)ccc(Nc3ccc(S(=O)(=O)O)cc3)c21
inactive: A549 33.9 µM | ACHN 38.8 µM | EKVX 17 µM | HCC 2998 26.5 µM | HL-60 31.6 µM | K562 52 µM | M14 35.1 µM | MCF7 21.3 µM | MDA-MB-231 22.5 µM | MDA-N 46 µM | NCI-H460 62.5 µM | NCI/ADR-RES > 100 µM | OVCAR-5 > 100 µM | PC-3 22.6 µM | RPMI-8226 45.2 µM | RXF 393 83.6 µM | SW-620 35.2 µM | UACC-62 > 100 µM | UO-31 59 µM

COc1ccc(-c2ncnc(-c3ccc(OC)c(OC)c3)n2)cc1OC
inactive: A549 > 100 µM | ACHN > 100 µM | EKVX > 100 µM | HCC 2998 > 100 µM | HL-60 > 100 µM | K562 > 100 µM | M14 > 100 µM | MCF7 > 100 µM | MDA-MB-231 > 100 µM | MDA-N > 100 µM | NCI/ADR-RES > 100 µM | OVCAR-5 > 100 µM | PC-3 > 100 µM | RPMI-8226 > 10 µM | RXF 393 36.5 µM | SW-620 > 100 µM | UACC-62 > 100 µM | UO-31 91 µM

CCN1CC2=C(OC(N)=C(C#N)C2c2ccc(Cl)cc2)/C(=C/c2ccc(Cl)cc2)C1 (stereo not drawn)
inactive: A549 14.2 µM | ACHN 15.7 µM | EKVX 39.5 µM | HCC 2998 26.7 µM | HL-60 > 100 µM | K562 8.81 µM | M14 21.5 µM | MCF7 30.5 µM | MDA-MB-231 16.1 µM | MDA-N 35 µM | NCI-H460 14 µM | NCI/ADR-RES 27.3 µM | OVCAR-5 20.1 µM | PC-3 18.2 µM | RPMI-8226 18 µM | RXF 393 12.3 µM | SW-620 44.1 µM | UACC-62 26.9 µM | UO-31 36.4 µM

CC/C=C/C[C@H](O)[C@H]1C[C@H]2O[C@H](CC(=O)OC)C[C@H]2O1
inactive: A549 > 100 µM | ACHN > 100 µM | EKVX > 100 µM | HCC 2998 > 100 µM | HL-60 > 100 µM | K562 > 100 µM | M14 > 100 µM | MCF7 > 100 µM | MDA-MB-231 > 100 µM | MDA-N > 100 µM | NCI-H460 > 100 µM | NCI/ADR-RES > 100 µM | OVCAR-5 > 100 µM | PC-3 > 100 µM | RPMI-8226 > 100 µM | RXF 393 > 100 µM | SW-620 > 100 µM | UACC-62 > 100 µM | UO-31 > 100 µM

COc1cccc(/C=N/C(/N=C/c2cccc(OC)c2O)c2cccc(OC)c2O)c1O
inactive: A549 26.7 µM | ACHN 21.5 µM | EKVX 19.2 µM | HCC 2998 18.8 µM | HL-60 25.9 µM | K562 24.7 µM | M14 17.1 µM | MCF7 18.9 µM | MDA-MB-231 25.1 µM | MDA-N 26.4 µM | NCI-H460 21.7 µM | NCI/ADR-RES 19.6 µM | OVCAR-5 22 µM | PC-3 26 µM | RPMI-8226 22 µM | RXF 393 8.39 µM | SW-620 27.5 µM | UACC-62 24.2 µM | UO-31 20.1 µM

N#Cc1c(-c2ccc(Cl)cc2)c(C#N)c(=O)n(NS(=O)(=O)c2ccccc2)c1O
inactive: A549 28.8 µM | ACHN 25.9 µM | EKVX 28.1 µM | HCC 2998 13.8 µM | HL-60 16.1 µM | K562 29.1 µM | M14 29.6 µM | MCF7 16.9 µM | MDA-MB-231 23.3 µM | MDA-N 19.8 µM | NCI-H460 19.9 µM | NCI/ADR-RES 35.3 µM | OVCAR-5 31 µM | PC-3 19.6 µM | RPMI-8226 6.44 µM | RXF 393 21.8 µM | SW-620 30.6 µM | UACC-62 15.1 µM

Oc1cc(O)c2c(c1)O[C@H](c1cc(O)c(O)c(O)c1)[C@H](O)C2 [EPIGALLOCATECHIN]
inactive: A549 27.5 µM | ACHN 21.2 µM | EKVX > 10 µM | HCC 2998 > 10 µM | HL-60 19.5 µM | K562 20.4 µM | M14 23.6 µM | MCF7 20.8 µM | MDA-MB-231 18.7 µM | MDA-N 18.8 µM | NCI-H460 18.3 µM | NCI/ADR-RES 22.6 µM | OVCAR-5 15.6 µM | PC-3 16.5 µM | RPMI-8226 13.8 µM | RXF 393 15.2 µM | SW-620 17.5 µM | UO-31 18.5 µM

Cc1ccc(OCC2OC(n3cnc4c(Br)nc(Br)nc43)CC2Oc2ccc(C)cc2)cc1 (stereo not drawn)
inactive: A549 12.6 µM | ACHN 2.32 µM | EKVX 2.05 µM | HCC 2998 2.6 µM | HL-60 1.91 µM | K562 2.57 µM | M14 2.59 µM | MCF7 4.32 µM | MDA-MB-231 2.12 µM | MDA-N 2.94 µM | NCI/ADR-RES 9.59 µM | OVCAR-5 12.3 µM | PC-3 2.94 µM | RPMI-8226 9.29 µM | RXF 393 4.94 µM | SW-620 2.56 µM | UACC-62 7.35 µM | UO-31 14.3 µM

— ChEMBL document CHEMBL1201862, “PubChem BioAssay data set” (2004)
